Reference: US8222202B2 (priority 2006, dated 2012)
Where two headings read alike, the source gives them in different places. Starred links: 1 amine or outer side, 2 acyl side, 3 side chain; linkers in the order of their positions; H or OH if unused. Positions of bridges follow the written chain, without caps; N, C: chain ends. Non-standard residues stand in square brackets, D forms with d. Residues, ends and D or L forms follow the SMILES beside them. *: point of attachment. X3 = CC(C)CCNCCC[C@H](N[*:1])C(=O)[*:2]; Ala(2-furyl) = N[C@@H](Cc1ccco1)C(=O)O; Orn(iPr) = CC(C)NCCC[C@H](N)C(=O)O; 2Pal = N[C@@H](Cc1ccccn1)C(=O)O; 3Pal = N[C@@H](Cc1cccnc1)C(=O)O; 2Thi = N[C@@H](Cc1cccs1)C(=O)O; 3Thi = N[C@@H](Cc1ccsc1)C(=O)O; Aad = N[C@@H](CCCC(=O)O)C(=O)O; Orn = NCCC[C@H](N)C(=O)O; Dab = NCC[C@H](N)C(=O)O; NHCH2CH2OH = OCCN*; NHOH = ON*

Legend:
[1] = system: anaesthetised Sprague-Dawley male rats; assay: in vivo duration of action, blood pressure test in anaesthetised rats; set-up: species or system rat; settings: ratio of decay rate of diastolic blood pressure response, AVP 0.1 nmol/kg i.v. to equieffective dose of compound; dibenamine-pretreated rats
Protocol: Blood pressure tests were carried out on anaesthetised Sprague-Dawley male rats (weighing 270-300 g) with catheterised jugular vein and carotid artery. The catheterised carotid artery was used to continuously monitor blood pressure and the jugular vein was used for administration of the compounds tested. Rats received intravenous injections of dibenamine prior to dosing to enhance their responsiveness to V1a receptor agonists (cf. Dekanski, J., Br. J. Pharmacol. 1952, 7, 567-572). […] Dosing intervals were set as time for the blood pressure to decrease to a stable baseline.
Determination of duration of action was based on the decay rate of diastolic arterial blood pressure transient increase. Specifically, for an exponential decay of plasma concentration, it can be shown that, if the response is measured beyond the distribution phase, the rate of decay near the EC50 is linear and inversely proportional to the elimination half-life (Rowland, M. and Tozer, T. in “Clinical Pharmacokinetics, Concepts and Applications”, 3rd ed., Lippincott Williams & Wilkins, Philadelphia, 1995).

[2] = biological target: T1, human oxytocin (hOT) receptor (Homo sapiens, UniProt P30559); assay: luciferase-based transcriptional reporter assay, selectivity hOT versus hV1a; assay type: cell-based
T1 construct: expressed in transfected cells
T1 sequence (P30559 1-389): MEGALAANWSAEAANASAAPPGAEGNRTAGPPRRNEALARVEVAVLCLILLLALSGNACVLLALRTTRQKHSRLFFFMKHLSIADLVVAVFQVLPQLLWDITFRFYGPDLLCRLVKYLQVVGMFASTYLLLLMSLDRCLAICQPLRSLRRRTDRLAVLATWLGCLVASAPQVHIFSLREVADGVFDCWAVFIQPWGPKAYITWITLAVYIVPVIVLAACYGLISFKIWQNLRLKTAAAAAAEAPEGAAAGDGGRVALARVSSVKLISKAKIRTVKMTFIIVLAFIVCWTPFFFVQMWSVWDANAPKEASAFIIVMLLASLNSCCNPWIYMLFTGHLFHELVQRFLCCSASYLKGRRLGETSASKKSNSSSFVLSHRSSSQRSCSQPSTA
Protocol: (§1) Agonist activity of compounds on the hV1a receptor was determined in a transcriptional reporter assay by transiently transfecting a hV1a receptor expression DNA into HEK-293 cells in concert with a reporter DNA containing intracellular calcium responsive promoter elements regulating expression of firefly luciferase. See Boss, V., Talpade, D. J., Murphy, T. J. J. Biol. Chem. 1996, May 3; 271(18), 10429-10432 for further guidance on this assay. […] To determine selectivity, compounds were tested in luciferase-based transcriptional reporter assays expressing the human oxytocin (hOT) receptor. Assays for other receptors (hV2, hV1b, rat V1a and rat V2) were also conducted.
(§2) The EC50 value given is the geometric mean expressed in nanomol/L (nM). Selectivity values are given as EC50 ratios.

hV1a receptor = biological target: T2, hV1a receptor (Homo sapiens, UniProt P37288); assay: hV1a receptor transcriptional reporter (luciferase) agonist assay; assay type: cell-based
T2 construct: expressed in transfected cells; host or cells: HEK-293
Protocol: as §1, §2

[3] = class symbol, agonist efficacy at hOT receptor compared to AVP
[4] = HEK-293 cells transiently transfected with hV1a receptor, 5 hours exposure, geometric mean, read-out: EC50 hV1a receptor

T2 sequence (P37288 whole entry): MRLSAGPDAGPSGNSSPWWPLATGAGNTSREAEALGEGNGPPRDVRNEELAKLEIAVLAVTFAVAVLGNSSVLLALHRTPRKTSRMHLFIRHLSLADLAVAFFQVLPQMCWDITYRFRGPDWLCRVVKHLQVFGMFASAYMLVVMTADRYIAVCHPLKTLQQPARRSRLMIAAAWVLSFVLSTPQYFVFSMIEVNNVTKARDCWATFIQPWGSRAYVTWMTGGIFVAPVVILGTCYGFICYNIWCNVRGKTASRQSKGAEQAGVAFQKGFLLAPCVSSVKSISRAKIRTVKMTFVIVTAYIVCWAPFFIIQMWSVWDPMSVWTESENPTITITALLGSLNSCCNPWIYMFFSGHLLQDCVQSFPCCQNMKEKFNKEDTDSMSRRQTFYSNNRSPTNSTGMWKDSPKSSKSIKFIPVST

| Molecule | selectivity hOT/hV1a [2, 3] | EC50 (hV1a receptor; [4]) [nM] | other results |
| --- | --- | --- | --- |
| CC[C@H](C)[C@@H]1NC(=O)[C@H](Cc2ccco2)NC(=O)[C@@H](N)CSSC[C@@H](C(=O)N2CCC[C@H]2C(=O)N[C@@H](CCCN)C(=O)NCC(N)=O)NC(=O)[C@H](CC(N)=O)NC(=O)[C@H](CCC(N)=O)NC1=O [Compound 32] (H-C[Ala(2-furyl)]IQNCP[Orn]G-NH2; disulfide 1-6) | – | – | in vivo duration relative to AVP [1]: 2.1 |
| [Phe2,Orn8]OT [[Phe2, Orn8]OT, reference compound] | – | – | in vivo duration relative to AVP [1]: 1.9; selectivity hOT/hV1a ([2]; EC50 ratio): 60 |
| CC[C@H](C)[C@@H]1NC(=O)[C@H](Cc2ccccc2)NC(=O)[C@@H](N)CSSC[C@@H](C(=O)N2CCC[C@H]2C(=O)N[C@@H](CCCNC(C)C)C(=O)NCC(N)=O)NC(=O)[C@H](CC(N)=O)NC(=O)[C@H](CCCC(N)=O)NC1=O [Compound 1, [Phe^2,Hgn^4,Orn(i-Pr)^8]VT] (H-CFI[Aad](NH2)NCP[Orn(iPr)]G-NH2; disulfide 1-6; N-terminus and C-terminus assumed) | + (selective hV1a receptor agonist; EC50 hOT/hV1a ratio not determined due to very low agonist efficacy (<30% compared to AVP) at the hOT receptor) | – | in vivo duration relative to AVP [1]: 1.7 |
| CC[C@H](C)[C@@H]1NC(=O)[C@H](Cc2cccs2)NC(=O)[C@@H](N)CSSC[C@@H](C(=O)N2CCC[C@H]2C(=O)N[C@@H](CCCN)C(=O)NCC(N)=O)NC(=O)[C@H](CC(N)=O)NC(=O)[C@H](CC(N)=O)NC1=O [Compound 33] (H-C[2Thi]INNCP[Orn]G-NH2; disulfide 1-6; N-terminus and C-terminus assumed) | + (selective hV1a receptor agonist; EC50 hOT/hV1a ratio not determined due to very low agonist efficacy (<30% compared to AVP) at the hOT receptor) | 14.6 | – |
| CC[C@H](C)[C@@H]1NC(=O)[C@H](Cc2cccs2)NC(=O)[C@@H](N)CSSC[C@@H](C(=O)N2CCC[C@H]2C(=O)N[C@@H](CCCNC(C)C)C(=O)NCC(N)=O)NC(=O)[C@H](CC(N)=O)NC(=O)[C@H](CC(N)=O)NC1=O [Compound 43] (H-C[2Thi]INNCP[Orn(iPr)]G-NH2; disulfide 1-6; N-terminus and C-terminus assumed) | + (selective hV1a receptor agonist; EC50 hOT/hV1a ratio not determined due to very low agonist efficacy (<30% compared to AVP) at the hOT receptor) | 13.7 | – |
| CC[C@H](C)[C@@H]1NC(=O)[C@H](Cc2ccccc2)NC(=O)[C@@H](N)CSSC[C@@H](C(=O)N2CCC[C@H]2C(=O)N[C@@H](CCCN)C(=O)NCC(N)=O)NC(=O)[C@H](CC(N)=O)NC(=O)[C@H](CC(=O)NCCO)NC1=O [Compound 23] (H-CFID(NHCH2CH2OH)NCP[Orn]G-NH2; disulfide 1-6) | + (selective hV1a receptor agonist; EC50 hOT/hV1a ratio not determined due to very low agonist efficacy (<30% compared to AVP) at the hOT receptor) | 7.97 | – |
| CC[C@H](C)[C@@H]1NC(=O)[C@H](Cc2ccccc2)NC(=O)[C@@H](N)CSSC[C@@H](C(=O)N2CCC[C@H]2C(=O)N[C@@H](CCCNCCC(C)C)C(=O)NCC(N)=O)NC(=O)[C@H](CC(N)=O)NC(=O)[C@H](CCC(N)=O)NC1=O [Compound 45] (H-CFIQNCP[X3]G-NH2; disulfide 1-6; N-terminus and C-terminus assumed) | – | – | EC50 (hV1a receptor): 1.65 nM; selectivity hOT/hV1a ([2]; EC50 ratio): 18 |
| CC[C@H](C)[C@@H]1NC(=O)[C@H](Cc2cccnc2)NC(=O)[C@@H](N)CSSC[C@@H](C(=O)N2CCC[C@H]2C(=O)N[C@@H](CCN)C(=O)NCC(N)=O)NC(=O)[C@H](CC(N)=O)NC(=O)[C@H](CCC(N)=O)NC1=O [Compound 18] (H-C[3Pal]IQNCP[Dab]G-NH2; disulfide 1-6; N-terminus and C-terminus assumed) | + (selective hV1a receptor agonist; EC50 hOT/hV1a ratio not determined due to very low agonist efficacy (<30% compared to AVP) at the hOT receptor) | 29.9 | – |
| CC[C@H](C)[C@@H]1NC(=O)[C@H](Cc2ccccc2)NC(=O)[C@@H](N)CSSC[C@@H](C(=O)N2CCC[C@H]2C(=O)N[C@@H](CCN)C(=O)NCC(N)=O)NC(=O)[C@H](CC(N)=O)NC(=O)[C@H](CCC(N)=O)NC1=O [Compound 8] (H-CFIQNCP[Dab]G-NH2; disulfide 1-6; N-terminus and C-terminus assumed) | – | 0.5 | selectivity hOT/hV1a ([2]; EC50 ratio): 11 |
| CC[C@H](C)[C@@H]1NC(=O)[C@H](Cc2ccccc2)NC(=O)[C@@H](N)CSSC[C@@H](C(=O)N2CCC[C@H]2C(=O)N[C@@H](CCCN)C(=O)NCC(N)=O)NC(=O)[C@H](CC(N)=O)NC(=O)[C@H](CC(=O)NO)NC1=O [Compound 24] (H-CFID(NHOH)NCP[Orn]G-NH2; disulfide 1-6; N-terminus and C-terminus assumed) | + (selective hV1a receptor agonist; EC50 hOT/hV1a ratio not determined due to very low agonist efficacy (<30% compared to AVP) at the hOT receptor) | 4.09 | – |
| CC[C@H](C)[C@@H]1NC(=O)[C@H](Cc2ccco2)NC(=O)[C@@H](N)CSSC[C@@H](C(=O)N2CCC[C@H]2C(=O)N[C@@H](CCCN)C(=O)NCC(N)=O)NC(=O)[C@H](CC(N)=O)NC(=O)[C@H](CC(N)=O)NC1=O [Compound 38] (H-C[Ala(2-furyl)]INNCP[Orn]G-NH2; disulfide 1-6; N-terminus and C-terminus assumed) | + (selective hV1a receptor agonist; EC50 hOT/hV1a ratio not determined due to very low agonist efficacy (<30% compared to AVP) at the hOT receptor) | 10.1 | – |
| CC[C@H](C)[C@@H]1NC(=O)[C@H](Cc2ccsc2)NC(=O)[C@@H](N)CSSC[C@@H](C(=O)N2CCC[C@H]2C(=O)N[C@@H](CCCN)C(=O)NCC(N)=O)NC(=O)[C@H](CC(N)=O)NC(=O)[C@H](CC(N)=O)NC1=O [Compound 35] (H-C[3Thi]INNCP[Orn]G-NH2; disulfide 1-6) | + (selective hV1a receptor agonist; EC50 hOT/hV1a ratio not determined due to very low agonist efficacy (<30% compared to AVP) at the hOT receptor) | 7.3 | – |
| CC[C@H](C)[C@@H]1NC(=O)[C@H](Cc2cccs2)NC(=O)[C@@H](N)CSSC[C@@H](C(=O)N2CCC[C@H]2C(=O)N[C@@H](CCN)C(=O)NCC(N)=O)NC(=O)[C@H](CC(N)=O)NC(=O)[C@H](CC(N)=O)NC1=O [Compound 36] (H-C[2Thi]INNCP[Dab]G-NH2; disulfide 1-6; N-terminus and C-terminus assumed) | + (selective hV1a receptor agonist; EC50 hOT/hV1a ratio not determined due to very low agonist efficacy (<30% compared to AVP) at the hOT receptor) | 11.5 | – |
| CC[C@H](C)[C@@H]1NC(=O)[C@H](Cc2ccccn2)NC(=O)[C@@H](N)CSSC[C@@H](C(=O)N2CCC[C@H]2C(=O)N[C@@H](CCN)C(=O)NCC(N)=O)NC(=O)[C@H](CC(N)=O)NC(=O)[C@H](CCC(N)=O)NC1=O [Compound 17] (H-C[2Pal]IQNCP[Dab]G-NH2; disulfide 1-6) | – | – | EC50 (hV1a receptor): 30.3 nM; selectivity hOT/hV1a [2]: + (key: +: selective hV1a receptor agonist; EC50 hOT/hV1a ratio not determined due to very low agonist efficacy (<30% compared to AVP) at the hOT receptor) |
